According to US5030638A, “Method of antiviral enhancement” (priority 1990, dated 1991):
In brackets after ≈: the same amount, converted by molar mass. Where two headings read alike, the source gives them in different places.

Assays:
[1] = test system: HIV-1, strain HTLV-IIIB; test: Reduction of cytopathogenic effect (CPE) in HIV-1 infected CEM cells, MTT assay; type: cell-based
Experimental: These tests involved plating of susceptible human host cells which are syncytium-sensitive with and without virus in microculture plates, adding various concentrations of the test compound, incubating the plates for 9 days (during which time infected, non-drug treated control cells are largely or totally destroyed by the virus), and then determining the number of remaining viable cells using a colorimetric endpoint.
Tissue culture plates were incubated at 37° C. in a humidified, 5% CO2 atmosphere and observed microscopically for toxicity and/or cytopathogenic effect (CPE). At 2 and 6 days after infection, fresh dilutions of each test article were prepared from the frozen stock, and a 20 μl volume of each dilution (prepared as a 10× concentration was added to the appropriate wells of both infected and uninfected cells.
On the 9th day post-infection, the cells in each well were resuspended and a 100 μl sample of each cell suspension was removed for use in an MTT assay. A 20 μl volume of a 5 mg/ml solution of 3-(4,5-dimethylthiazol-2-yl)-2,5-diphenyltetrazolium bromide (MTT) was added to each 100 μl cell suspension, and the cells were incubated at 37° C. in 5% CO2 for 4 hours. […] A 100 μl volume of a solution of 10% sodium dodecyl sulfate in 0.01N hydrochloric acid wa added to each sample, and the samples were incubated overnight. The absorbance at 590 nm was determined for each sample using a Molecular Devices Vmax microplate reader. This assay detects drug-induced suppression of viral CPE, as well as drug cytotoxicity, by measuring the generation of MTT-formazan by surviving cells.
Assays were done in 96-well tissue culture plates. CEM cells were treated with polybrene at a concentration of 2 μg/ml, and an 80 μl volume of cells (1×10^4 cells) was dispensed into each well. A 100 μl volume of each test article dilution (prepared as a 2× concentration) was added to 5 wells of cells, and the cells were incubated at 37° C. for 1 hour. A frozen culture of HIV-1, strain HTLV-IIIB, was diluted in culture medium to a concentration of 5×10^4 TCID50 per ml, and a 20 μl volume (containing 10^3 TCID50 of virus) was added to 3 of the wells for each test article concentration. […] A 20 μl volume of normal culture medium was added to the remaining wells to allow evaluation of cytotoxicity. Each plate contained 6 wells of untreated, uninfected, cell control samples and 6 wells of untreated, infected, virus control samples. Dideoxycytidine (DDC) and dideoxyadenosine (DDA) were included as positive control compounds.

[2] = biological target: almond β-glucosidase; test: Beta-glucosidase inhibition assay, pH 7.4; type: biochemical; conditions: for IC50: read-out: Enzyme Inhibition-IC50, Almond β-Glucosidase pH 7.4; for Inhibition Index (first, head is drawing 3) / Inhibition Index (second, head is drawing 4): ratio of IC50 values; for Inhibition Index (first, head is drawing 3): numerically almond pH 4.8 / almond pH 7.4; for Inhibition Index (second, head is drawing 4): numerically yeast α pH 7.4 / almond β pH 7.4
Experimental: (§1) Yeast alpha-glucosidase and almond beta-glucosidase activities were measured by a modification of the method of Evans, et al., Phytochemistry 22, 768-770 (1983). The modifications included 1) assay of activities at pH 7.4 in HEPES (N-2-hydroxyethylpiperazine-N'-2-ethanesulfonic acid) buffer, 2) measurement in 96 well microtiter plates and 3) inclusion of 10% DMSO in control and test samples.
(§2) The release of p-nitrophenol from the substrate p-nitrophenylglycoside was measured spectrophotometrically in the presence and absence of test compound. Each assay included a known inhibitor of the enzyme as a standard.
To 100 μl 50 mM HEPES buffer, pH 7.4, in a microtiter plate, add 20 μl test compound in DMSO (DMSO alone in control), 40 μl (0.136 units) beta-glucosidase (Sigma) in HEPES buffer and pre-incubate at room temperature for 15 minutes. Add 40 μl 1.25 mM p-nitrophenyl-beta-D-glucopyranoside in HEPES buffer, as substrate and monitor absorbance change at 405 nm in a Biotek EIA Autoreader. Absorption change was measured at 15 to 25 minutes (reaction is linear for at least 30 minutes). Each sample was tested in triplicate. […] Castanospermine was used as standard inhibitor.

[3] = biological target: almond β-glucosidase; test: Beta-glucosidase inhibition assay, pH 4.8; type: biochemical; conditions: read-out: Enzyme Inhibition-IC50, Almond β-Glucosidase pH 4.8
Experimental: as §1, §2
To 100 μl 50 mM sodium citrate buffer, pH 4.8, in a microtiter plate, add 15 μl test compound in DMSO (DMSO alone in control), 20 μl (0.017 units) beta-glucosidase (Sigma) in citrate buffer and pre-incubate at room temperature for 15 minutes. Add 25 μl 2.50 mM p-nitrophenyl-beta-D-glucopyranside in citrate buffer, as substrate. […] Add 50 μl 0.4M NaOH. Read absorption change at 405 nm in a Biotek EIA Autoreader. Each sample was tested in triplicate. […] Castanospermine was used as standard inhibitor.

[4] = biological target: T1, yeast α-glucosidase (Saccharomyces cerevisiae, UniProt P53341); test: Alpha-glucosidase inhibition assay, pH 7.4; type: biochemical
T1 construct: purchased Sigma
T1 sequence (P53341 whole entry): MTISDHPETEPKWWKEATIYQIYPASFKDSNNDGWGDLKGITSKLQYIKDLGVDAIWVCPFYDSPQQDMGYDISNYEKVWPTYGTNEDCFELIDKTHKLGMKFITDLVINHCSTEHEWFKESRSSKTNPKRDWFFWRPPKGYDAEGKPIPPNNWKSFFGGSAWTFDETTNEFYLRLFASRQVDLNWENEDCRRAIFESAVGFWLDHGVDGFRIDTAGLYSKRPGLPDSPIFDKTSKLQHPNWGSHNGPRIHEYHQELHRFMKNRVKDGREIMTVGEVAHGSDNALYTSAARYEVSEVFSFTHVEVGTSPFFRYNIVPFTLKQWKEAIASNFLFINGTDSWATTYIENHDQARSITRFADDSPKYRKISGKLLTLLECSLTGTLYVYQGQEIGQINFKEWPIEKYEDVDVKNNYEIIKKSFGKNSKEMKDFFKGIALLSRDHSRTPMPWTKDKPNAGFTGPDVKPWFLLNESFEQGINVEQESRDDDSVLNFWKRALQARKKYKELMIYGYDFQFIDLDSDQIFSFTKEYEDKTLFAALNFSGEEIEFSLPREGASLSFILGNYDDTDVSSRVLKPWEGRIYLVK
Experimental: as §1, §2
To 100 μl 50 mM HEPES buffer, pH 7.4, in a microtiter plate, add 20 μl test compound in DMSO (DMSO alone in control), 40 μl (0.013 units) yeast alpha-glucosidase (Sigma) in HEPES buffer and pre-incubate at room temperature for 15 minutes. Add 40 μl 1.25 mM p-nitrophenyl-alpha-D-glucopyranoside (Sigma) in HEPES buffer, as substrate, and monitor absorbance change at 405 nm in Biotek EIA Auto-reader. Absorption change was measured at 15 to 25 minutes (reaction was linear for at least 30 minutes). Each sample was tested in triplicate. […] Deoxynojirimycin was used as standard inhibitor.

[5] = test system: HIV; conditions: cited from earlier work

Nc1ccn([C@H]2CC[C@@H](CO)O2)c(=O)n1 [DDC, Dideoxycytidine, reference compound]
inhibition at 0.01 µg/mL ([1]; Human immunodeficiency virus 1, IIIB, CCRF-CEM, 216 h, 0.01 μg/ml, read-out: Percent Reduction of CPE): 41.5%
inhibition at 0.032 µg/mL ([1]; Human immunodeficiency virus 1, IIIB, CCRF-CEM, 216 h, 0.032 μg/ml, read-out: Percent Reduction of CPE): 73.9%
IC50 ([1]; Human immunodeficiency virus 1, IIIB, CCRF-CEM, 216 h, HIV-1, CEM cells, reduction of CPE, read-out: ID50 (median inhibitory dose)): 0.01 µg/mL (≈ 0.0473 µM)

CCCCCN1C[C@H](O)[C@@H](O)[C@H](O)[C@H]1CO [Example 1, 1,5-(Pentylimino)-1,5-dideoxy-D-glucitol]
IC50 ([2]; pH 7.4): 15 µM
Inhibition Index (first, head is drawing 3) [2]: 28.2
Inhibition Index (second, head is drawing 4) [2]: 29.5
IC50 [3]: 423 µM
IC50 ([4]; pH 7.4, read-out: Enzyme Inhibition-IC50, Yeast α-Glucosidase pH 7.4): 444 µM

O[C@@H]1[C@@H](O)[C@@H](O)CN2CC[C@@H](O)[C@@H]12 [L-6-epicastanospermine]
HIV inhibitory / antiviral activity ([5]; literature): neither the epimer L-1,6-diepicastanospermine nor the stereoisomer of castanospermine, L-6-epicastanospermine, were found to be inhibitory

O=c1[nH]cnc2c1ncn2[C@H]1CC[C@@H](CO)O1 [DDI, reference compound]
Percent Reduction of CPE ([1]; 1.0 μg/ml, 12960 min): 28.3%
Percent Reduction of CPE ([1]; 3.2 μg/ml, 12960 min): 49.6%
Percent Reduction of CPE ([1]; 10 μg/ml, 12960 min): 75.6%
ID50 (median inhibitory dose) ([1]; HIV-1, CEM cells, reduction of CPE, 12960 min): 3.0 µg/mL (≈ 12.7 µM)

O[C@@H]1[C@@H](O)[C@@H](O)CN2CC[C@H](O)[C@@H]12 [L-1,6-diepicastanospermine]
HIV inhibitory / antiviral activity ([5]; literature): neither the epimer L-1,6-diepicastanospermine nor the stereoisomer of castanospermine, L-6-epicastanospermine, were found to be inhibitory

Cc1cn([C@H]2C[C@H](N=[N+]=[N-])[C@@H](CO)O2)c(=O)[nH]c1=O [AZT, 3'-azido-3'-deoxythymidine]
HIV inhibitory / antiviral activity ([5]; literature): inhibit replication of the virus in vitro

CCN1C[C@H](O)[C@@H](O)[C@H](O)[C@H]1CO [Ethyl, reference compound]
Enzyme Inhibition, Almond β-Glucosidase pH 7.4 ([2]; pH 7.4, at 1 mM): 67%
Inhibition Index (first, head is drawing 3) [2]: ~ 1
Inhibition Index (second, head is drawing 4) [2]: ~ 1
IC50 [3]: ~1000 µM
inhibition at 1000 µM ([4]; pH 7.4, read-out: Enzyme Inhibition, Yeast α-Glucosidase pH 7.4): 51%
reduction of the yield of infectious HIV ([5]; Karpas et al.): three

O[C@H]1[C@H](O)[C@@H](O)CN2CC[C@H](O)[C@H]12 [castanospermine]
HIV inhibitory / antiviral activity ([5]; literature): inhibition of the cytopathic effect (CPE)
reduction in virion infectivity ([5]; literature): only a modest reduction in virion infectivity

CN1C[C@H](O)[C@@H](O)[C@H](O)[C@H]1CO [Methyl, N-methyl-deoxynojirimycin, reference compound]
IC50 ([2]; pH 7.4): 102 µM
Inhibition Index (first, head is drawing 3) [2]: 3.5
Inhibition Index (second, head is drawing 4) [2]: 0.53
IC50 [3]: 366 µM
IC50 [4]: 54 µM
HIV inhibitory / antiviral activity ([5]; literature): significant antiviral activity
HIV inhibitory / antiviral activity ([5]; literature, listed as N-methyl derivative of deoxynojirimycin (DNJ)): activity against HIV
